Laboratory results: patent US20070197452A1, “Treatment of amyloid-related diseases” (priority 2006, published 2007)

How the values were obtained:
TgCRND8 mice [1] = assay: Survival census (Kaplan-Meier); assay type: in vivo, mouse; settings: prophylactic treatment, vs untreated, n=35 per group
Protocol: (§1) Survival Census: The probability of survival was assessed by the Kaplan-Meier technique, computing the probability of survival at every occurrence of death, thus making it suitable for small sample sizes. For the analyses of survival, 35 mice were used for each treatment group. The Tarone-Ware test was used to assess effects of treatments.
as §1, with “census.” for “Census:”, “using” for “by”

TgCRND8 mice [2] = assay: Morris water maze spatial reference memory test; assay type: in vivo, mouse; settings: prophylactic, 6 weeks to 6 months of age
Protocol: Behavioural tests: Morris Water Maze testing was performed as previously described. After non-spatial pre-training, mice underwent place discrimination training for 5 days with 4-trials per day, followed by a cued visible platform to rule out general motivational, learning deficits and motor problems, and a probe trial to evaluate memory. […] Open field test for motor activity was preformed as described previously. Duration of walking, pausing and grooming were analyzed as indices of spontaneous locomotor activity. Sensorimotor function was examined with an EconomexTM accelerating rotarod (Columbus Instruments, Columbus, Ohio), as described elsewhere. The rod was set to accelerate at a rate of 0.2 r.p.m./s, from an initial, constant speed of 5 r.p.m. Latency to fall was recorded in four daily trials, conducted at 30 min intervals. All mice were trained for seven days before testing. The test day performance score for each animal was obtained by summing its latency to fall over the four trials Behavioral tests. Morris water maze testing was carried out as previously described. After nonspatial pretraining, mice underwent place discrimination training for 5 d with four trials per day, followed by a cued visible platform trial and a probe trial. An open-field test for motor activity was carried out as described previously. Sensorimotor function was assessed with an Economex accelerating rotarod (Columbus Instruments) as previously described. Behavioural tests. Morris Water Maze testing was performed as previously described. After non-spatial pre-training, mice underwent place discrimination training for 5 days with 4-trials per day, followed by a cued visible platform to rule out general motivational, learning deficits and motor problems, and a probe trial to evaluate memory. The probe trial was conducted at 72 h after the last testing, and used an annulus-crossing index to assess spatial recall. The annulus-crossing index measures the number of passes over the original platform position relative to passes over the other three quadrants. […] Open field test for motor activity was performed as described previously

TgCRND8 mice [3] = assay: Cerebral amyloid plaque burden (anti-Aβ immunostaining, image analysis); assay type: in vivo, mouse; settings: TgCRND8 mice at six months of age; vs untreated
Protocol: Cerebral amyloid burden. […] To generate sets of systematic uniform random sections, 5 μm serial sections were collected across the entire hemisphere. Sets of sections at 50 μm intervals were used for analyses (10-14 sections/set). Plaques were identified after antigen retrieval with formic acid, and incubation with primary anti-Aβ antibody (Dako M-0872), followed by secondary antibody (Dako StreptABCcomplex/horseradish kit). End products were visualized with DAB and were counter-stained with luxol fast blue. Amyloid plaque burden was assessed with Leco IA-3001 image analysis software interfaced with Leica microscope and Hitachi KP-M1U CCD video camera. Openlab imaging software (Improvision, Lexington, Mass.) was then used to convert micrographs to binary images for plaque number and plaque area determinations. Vascular amyloid burden was defined as amyloid originating from or surrounding blood vessels and was analysed similarly. Cerebral Aβ burden. […] Sets of sections at […] intervals for analyses (10-14 sections per set) were used. Plaques with primary Aβ-specific antibody (Dako M-0872) were identified and visualized with DAB. AP plaque burden was assessed with Openlab imaging software (Improvision) and used to convert micrographs to binary images for determinations of plaque number and plaque area. Vascular Aβ burden was defined as Aβ plaques originating from or surrounding blood vessels and was analyzed similarly. Cerebral Aβ burden. […] To generate sets of systematic uniform random sections, 5 μm serial sections were collected across the entire hemisphere. Sets of sections at 50 μm intervals were used for analyses (10-14 sections/set). Plaques were identified after antigen retrieval with formic acid, and incubation with primary anti-Aβ antibody (Dako M-0872), followed by secondary antibody (Dako StreptABCcomplex/horseradish kit). End products were visualized with DAB and were counter-stained with luxol fast blue. Aβ plaque burden was assessed with Leco IA-3001 image analysis software interfaced with Leica microscope and Hitachi KP-M1U CCD video camera. Openlab imaging software (Improvision, Lexington, Mass.) was then used to convert micrographs to binary images for plaque number and plaque area determinations. Vascular Aβ burden was defined as Aβ plaques originating from or surrounding blood vessels and was analyzed similarly.

[4] = tested on: mouse model of Huntington disease; settings: oral administration; reference [26]; cited from earlier work
Aβ = Aβ (Homo sapiens, UniProt P05067); settings: reference [11]; cited from earlier work
Pilot in vivo studies = settings: data not shown
[5] = 6-18 grams/day/adult or 86-257 mg/Kg/day; cited from earlier work

Chain of Aβ (P05067 672-713 limits assumed): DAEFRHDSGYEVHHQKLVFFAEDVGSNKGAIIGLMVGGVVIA

In the case of OC[C@@H](O)[C@@H](O)[C@H](O)[C@H](O)CO [mannitol, reference compound], the “survival (Kaplan-Meier cumulative survival)” value (TgCRND8 mice [1]) is reported as “not significantly different”, the “cognitive performance compared with non-Tg littermates” value (TgCRND8 mice [2]) is reported as “significantly different from mannitol treated non-Tg littermates” and the “cognitive performance compared with untreated TgCRND8 mice” value (TgCRND8 mice [2]) is reported as “no effect on behavior”. The “cognitive performance compared with untreated TgCRND8 mice” value (TgCRND8 mice [2]; listed as Mannitol) was “not significantly different from untreated TgCRND8 mice” and the “plaque count as measure of total plaque burden” value (TgCRND8 mice [3]) was “indistinguishable from untreated TgCRND8 mice”.
In the case of OC[C@H]1O[C@H](O[C@H]2O[C@H](CO)[C@@H](O)[C@H](O)[C@H]2O)[C@H](O)[C@@H](O)[C@@H]1O [trehalose], the “effects in mouse model of Huntington disease” value [4] is listed as “decreased polyglutamine aggregates in brain, improved motor dysfunction and extended lifespan”.
For O[C@H]1[C@H](O)[C@@H](O)[C@H](O)[C@@H](O)[C@H]1O [myo-cyclohexanehexol, 1,2,3,5/4,6-(myo-) cyclohexanehexol], the “effectiveness in prior in vitro studies” value (Aβ) is listed as “only weakly effective”, the “benefit in pilot in vivo studies” value (Pilot in vivo studies) is listed as “no significant benefit” and the toxicity [5] is listed as “no toxicity”.
